One may read the IC50 as the concentration that gives 50% inhibition.

Sequence of interaction between GST-MAGEA11 MHD and FAM-PCF11_4 peptide (MAGE-A11:PCF11) (P43364 218-429): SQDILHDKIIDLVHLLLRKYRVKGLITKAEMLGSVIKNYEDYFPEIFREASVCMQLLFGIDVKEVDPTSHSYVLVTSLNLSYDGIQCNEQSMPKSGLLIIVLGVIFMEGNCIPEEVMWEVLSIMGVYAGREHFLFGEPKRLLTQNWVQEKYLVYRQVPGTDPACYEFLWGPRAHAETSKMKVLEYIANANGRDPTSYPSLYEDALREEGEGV

One test has as its target interaction between GST-MAGEA11 MHD and FAM-PCF11_4 peptide (MAGE-A11:PCF11) (Homo sapiens (Human), UniProt P43364). In words: TR-FRET dose response competition assay for disruption of MAGE-A11:PCF11 binding. The settings on record: Dose response TR-FRET screening of nine scaffold groups against MAGE-A11:PCF11; read-out: consensus IC50. From the text: TR-FRET Assays and High-throughput Screen. Terbium-anti-GST antibody, 1 M Tris pH 7.5 1 M MgCl2 and 1 M DTT were purchased from Invitrogen (Carlsbad, CA), BSA was purchased from Sigma (St. Louis, MO). Dimethyl sulfoxide (DMSO) was purchased from Fisher Scientific (Pittsburgh, PA). Black 384-well low volume plates and 384-well polypropylene compound plates were purchased from Corning Incorporated (Tewksbury, MA). The St. Jude FDA drug and Bioactive library (11,293 chemicals), Drug-like library (10,073 chemicals) and Lead-like library (10,041 chemicals) were custom assembled and purchased from commercial sources including Sigma, Microsource (Gaylordsville, CT), selleckchem (Houston, TX), ChemDiv (San Diego, CA), ChemBridge (San Diego, CA), Enamine (Monmouth Jct., NJ), and Life Chemicals (Niagara-on-the-Lake, ON, Canada). They were arrayed (10 mM in DMSO) in 384-well polypropylene compound plates with columns 1, 2, 13 and 14 empty which were reserved for controls.
The TR-FRET assay buffer with a formula of 50 mM Tris pH 7.5, 20 mM MgCl2, 0.1 mg/ml BSA and 1 mM DTT was freshly prepared before each experiment. All TR-FRET assays were performed in black 384-well plates with 20 μl/well assay volume in the TR-FRET assay buffer at room temperature (approximately 25° C.). All peptides or compounds were solubilized in DMSO. To test the competitive activity of peptides or compounds against the interaction between GST-MAGEA11 MHD and FAM-PCF11_4 peptide, 10 μl/well peptide or compound at specified concentration was dispensed into a black 384-well low volume plate, followed by 5 μl/well FAM-PCF11_4 (800 nM), 5 μl/well Tb-anti-GST (20 nM) and GST-MAGEA11 MHD (20 nM). The assay components in each well was then mixed by shaking the plate on an IKA MTS 2/4 digital microtiter plate shaker (IKA Works; Wilmington, NC, USA) at 900 RPM for 1 minute. The plate was further centrifuged in an Eppendorf 5810 centrifuge with an A-4-62 swing-bucket rotor (Eppendorf AG, Hamburg, Germany) at 201 g (1000 rpm) for 30 seconds. The plate was then incubated for 90 min with a lid to avoid light exposure to the assay components. After incubation, the fluorescent emission signals at 520 nm and 490 nm channels of individual wells were measured with a PHERAstar FS plate reader (BMG Labtech; Durham, NC, USA) by using a 340 nm excitation filter, 100 μs delay time, and 200 μs integration time. The TR-FRET fluorescence emission ratio (TR-FRET signal) for each well was presented as 10 000×520 nm/490 nm, which was used directly for curve fitting, or further converted to % Inhibition based on the respective positive and negative controls. The graphic software GraphPad Prism 4.81 (GraphPad Software; La Jolla, CA, USA) was used to generate curves and derive IC50 values of tested peptides or compounds, if applicable.
TR-FRET inhibitory activity characterization of a panel of PCF11 peptides against the interaction between GST-MAGEA11 MHD and FAM-PCF11_4 was performed as follows. In a 20 μl/well assay volume, dilutions of PCF11_1 to PCF11_8 peptides (concentrations ranged from 3.1 nM to 100 μM for peptides PCF11_4, PCF11_5, PCF11_6 and PCF11_8 in a 1-to-2 dilution pattern for 16 concentration levels, and ranged from 48.9 nM to 100 μM for peptides of PCF11_1, PCF11_2, PCF11_3 and PCF11_7 in a 1-to-2 dilution pattern for 12 concentration levels), 200 nM FAM-PCF11_4, 5 nM Tb-anti-GST and 5 nM GST-MAGEA11 were mixed together and incubated for 90 min before the TR-FRET signal for each well was measured. The final DMSO concentration was 1.1% (v/v). […] The signal of each peptide-treated well (Signalpeptide) was normalized to the positive and negative controls to derive % inhibition of the peptide at a specific concentration with equation 1. Where applicable, the % Inhibition data were fit into a Sigmoidal dose response equation to derive IC50 values.
TR-FRET screen for identifying MAGEA11 small molecule inhibitors was performed as follows.
(In general: TR-FRET usually uses a lanthanide donor and a delayed reading to cut background.)
Regarding `COc1cccc(CNCCCNc2ccnc3cc(Cc4ccc(C#N)cc4)ccc23)c1O` [SJ000311303-1], the IC50 was 51 µM. For the molecule `CCCn1c(=O)[nH]c(=O)c2c1nc(-c1ccc(SC)cc1)n2CCOC` [SJ000416762-1], the IC50 stood at 69.9 µM. Take `COc1ccc(OC)c(Nc2nc(N)c3ccccc3n2)c1` [SJ000202008-1]: the IC50 amounted to 69.9 µM. In the case of `Cc1ccc(S(=O)(=O)c2nc(-c3ccc(Br)cc3)oc2N2CCOCC2)cc1` [SJ000230855-1], the concentration for half-maximal inhibition (IC50) is 69.9 µM. On to `COCCn1c(-c2ccc(F)cc2)nc2c1c(=O)[nH]c(=O)n2CC(C)C` [SJ000422648-1], for which the IC50 turned out to be 69.9 µM. Take `Cn1c(-c2ccc(C(F)(F)F)cc2)nc2c1c(=O)[nH]c(=O)n2Cc1ccccc1` [SJ000404631-1]: the concentration for half-maximal inhibition (IC50) turned out to be 69.9 µM.

Regarding `COc1cccc(F)c1CNCCCNc1ccnc2cc(C(F)(F)F)ccc12` [SJ000521051-1], the IC50 was 69.9 µM.

With `Cc1ccc(-c2nc(S(=O)(=O)c3ccccc3)c(N3CCOCC3)o2)cc1` [SJ000159484-1], the IC50 was found to be 69.9 µM. Turning to `COC(=O)Cn1cnc2cc(-c3ccc(Cl)cc3)sc2c1=O` [SJ000418500-1], the IC50 stood at 69.9 µM. Same read-out and setting: under `COc1ccc(Oc2ccc3c(NCCCNCc4cc(F)ccc4OC)ccnc3c2)cc1` [SJ000311221-1] stands 46.4 µM; under `CC(=O)N(C1=C(Cl)C(=O)c2ccccc2C1=O)c1cccc(O)c1` [SJ000046178-1], 69.9 µM.

As to `CCCN1C(=O)c2ccccc2NC1c1ccc(F)cc1` (stereo not shown) [SJ000026516-2], the IC50 came to 69.9 µM. `COc1cccc(CNCCCNc2ccnc3cc(CC(C)C)ccc23)c1O` [SJ000311259-1]: the IC50 came to 68.5 µM. As for `Fc1ccc(-c2ccc3c(NCCCNCc4cccc5c4OCO5)ccnc3c2)cc1` [SJ000311240-1], the IC50 is 25 µM. On the same count and under the same terms, in the case of `COCC(C)NC(=O)Cn1cnc2cc(-c3ccc(Br)cc3)sc2c1=O` (stereo not shown) [SJ000427828-1] it was 69.9 µM.

On to `CSc1nc2cc(-c3ccccc3)sc2c(=O)n1CCN1CCOCC1` [SJ000405932-1], for which the IC50 is 69.9 µM. For the molecule `CCCCn1c(=O)[nH]c(=O)c2c1nc(-c1ccc(OC)c(Br)c1)n2CC(C)C` [SJ000378943-1], the IC50 came out at 69.9 µM.

Regarding `COCCCn1c(-c2cccc(Cl)c2)nc2c1c(=O)[nH]c(=O)n2Cc1ccccc1` [SJ000383944-1], the IC50 stood at 69.9 µM. As for `FC(F)(F)c1cccc(CNCCCNc2ccnc3cc(C(F)(F)F)ccc23)c1` [SJ000521047-1], the IC50 was determined as 69.9 µM. The same measure, in the same setting: under `NC1=C(Nc2ccc(Br)cc2)C(=O)c2ccccc2C1=O` [SJ000032713-1] stands 69.9 µM; under `CC(C)C(NC1=C(Cl)C(=O)c2ccccc2C1=O)C(=O)O` (stereo not shown) [SJ000244609-2], 587 µM; under `CC(NC=O)c1ccc2c(c1)c1ccccc1n2C` (stereo not shown) [SJ000461804-1], 69.9 µM. As for `Cc1ccc(C2Nc3ccccc3C(=O)N2Cc2ccccc2)cc1` (stereo not shown) [SJ000019545-2], the 50% inhibitory concentration (IC50) is 69.9 µM. Consider `Clc1ccc2c(NCCCNCc3ccc(-c4ccccc4)cc3)ccnc2c1` [SJ000523064-1], for which the IC50 amounted to 34.9 µM. Still for that read-out and setting: in the case of `O=C1c2ccccc2NC(c2ccc(F)cc2)N1Cc1ccccc1` (stereo not shown) [SJ000026596-1] it was 69.9 µM; in that of `CC(C)NC(=O)NC(=O)Cn1cnc2cc(-c3ccccc3)sc2c1=O` [SJ000425388-1], 69.9 µM. Consider `COc1ccccc1Oc1ccc2c(NCCCNCc3cccc4c3OCO4)ccnc2c1` [SJ000311212-1], for which the 50% inhibitory concentration (IC50) turned out to be 69.9 µM. Take `Cc1ccccc1CNC(=O)Cn1cnc2cc(-c3ccccc3)sc2c1=O` [SJ000453315-1]: the IC50 came to 69.9 µM. As to `Oc1ccc(Br)c(CNCCCNc2ccnc3cc(Cl)ccc23)c1` [SJ000311194-1], the IC50 was 69.9 µM. Turning to `COc1cccc(Oc2ccc3c(NCCCNCc4cc(F)ccc4OC)ccnc3c2)c1` [SJ000311217-1], the IC50 is 36.8 µM. The same measure, in the same setting: under `COc1ccc(F)cc1CNCCCNc1ccnc2cc(-c3ccc(F)cc3)ccc12` [SJ000311241-1] stands 38.9 µM; under `COc1ccc(-c2cc3ncn(CC(=O)NCc4ccc(F)cc4)c(=O)c3s2)cc1` [SJ000443969-1], 69.9 µM.

Staying with this test, now noted: Table 5, dose response TR-FRET screening of 59 quinoline compounds against MAGE-A11:PCF11; read-out: TR-FRET IC50.
On to `Clc1ccc2c(NCCCCN(Cc3ccccc3)Cc3ccc4[nH]ccc4c3)ccnc2c1` [SJ000520434-1], for which the IC50 was determined as 23.4 µM.

On to `Clc1ccc(CN(CCCCNc2ccnc3cc(Cl)ccc23)Cc2ccccc2)c(Cl)c1` [SJ000361207-2], for which the IC50 was greater than 70 µM.

Consider `CCCN(CCCNc1ccnc2cc(Cl)ccc12)Cc1ccc(-c2ccccc2)cc1` [SJ000523039-1], for which the IC50 is greater than 70 µM. Consider `CC(C)(C)CCN(CCCCNc1ccnc2cc(Cl)ccc12)Cc1ccccc1` [SJ000357537-2], for which the IC50 is greater than 70 µM. Take `Fc1ccc(CN(CCCCNc2ccnc3cc(Cl)ccc23)Cc2ccccc2)cc1` [SJ000522725-1]: the concentration for half-maximal inhibition (IC50) was greater than 70 µM. For the molecule `CCCN(CCCNc1ccnc2cc(Cl)ccc12)Cc1c(C)cc(C)cc1C` [SJ000522749-1], the half-maximal inhibitory concentration (IC50) is greater than 70 µM. As for `Clc1ccc(Oc2ccc3c(NCCCNCc4ccco4)ccnc3c2)cc1` [SJ000311226-1], the IC50 is greater than 70 µM.

Staying with this test, now noted: Table 8, representative compounds; read-out: TR-FRET IC50.
For the molecule `COc1cccc(CNCCCNc2ccnc3cc(Oc4ccccc4)ccc23)c1O` [SJ000311207], the IC50 was determined as 69.9 µM. Take `COc1cccc(CNCCCNc2ccnc3cc(Oc4cccc(N(C)C)c4)ccc23)c1O` [SJ000311231]: the IC50 was 69.9 µM. Consider `FC(F)(F)c1ccc2c(NCCCNCc3c4ccccc4cc4ccccc34)ccnc2c1` [SJ000361126], for which the IC50 was 69.9 µM.

Turning to `COc1ccc(CNCCCNc2ccnc3cc(Cl)ccc23)cc1O` [SJ000311192], the IC50 was determined as 69.9 µM.

On to `COc1ccc(F)cc1CNCCCNc1ccnc2cc(-c3cccc4ccccc34)ccc12` [SJ000311277], for which the IC50 came out at 10.3 µM.

As to `COc1cccc(CNCCCNc2ccnc3cc(C4CCCCC4)ccc23)c1O` [SJ000311263], the IC50 is 32.4 µM. Consider `COc1cccc(CNCCCNc2ccnc3cc(CC4CCCCC4)ccc23)c1O` [SJ000311251], for which the IC50 is 29.2 µM. The same measure, in the same setting: in the case of `c1cc(CNCCCNc2ccnc3cc(-c4ccc5c(c4)OCO5)ccc23)c2c(c1)OCO2` [SJ000311292] it was 30.5 µM; in that of `FC(F)(F)c1cccc(CNCCCNc2ccnc3cc(Cl)ccc23)c1` [SJ000521024], 69.9 µM; in that of `c1cc(CNCCCNc2ccnc3cc(C4CCCCC4)ccc23)c2c(c1)OCO2` [SJ000311264], 23.7 µM. As for `Nc1ccccc1CNCCCNc1ccnc2cc(Cl)ccc12` [SJ000523055], the IC50 amounted to 69.9 µM.

Consider `COc1cccc(CNCCC/N=C2/C=CNC3=CC=C(CC(C)C)C=CC32)c1O` (stereo not shown) [SJ000311259], for which the IC50 was determined as 68.5 µM. `O=[N+]([O-])c1ccc(CNCCCNc2ccnc3cc(Cl)ccc23)cc1O` [SJ000311191]: the IC50 worked out at 69.9 µM.

With `COc1cccc(CNCCCNc2ccnc3cc(CCc4ccccc4)ccc23)c1O` [SJ000311255], the IC50 was determined as 26.6 µM. The same measure, in the same setting: under `COc1ccc(F)cc1CNCCCNc1ccnc2cc(-c3ccccc3)ccc12` [SJ000311285] stands 28.2 µM; under `COc1ccc(F)c(CNCCCNc2ccnc3cc(Cl)ccc23)c1` [SJ000521030], 69.9 µM.

Values taken from patent US20240246941A1, “SUBSTITUTED 4-(3-AMINOPROP-1-YL)AMINOQUINOLINE ANALOGS AS MODULATORS OF MELANOMA-ASSOCIATED ANTIGEN 11 UBIQUITIN LIGASE” (ST. JUDE CHILDREN'S RESEARCH HOSPITAL, INC., priority 2020, published 2024).
